Data reported in BindingDB's records for patent US20250059213 (Pretzel Therapeutics, 2025).

Molecular target: T1, Lon protease homolog, mitochondrial (Homo sapiens, UniProt P36776)
T1 sequence (P36776 whole entry): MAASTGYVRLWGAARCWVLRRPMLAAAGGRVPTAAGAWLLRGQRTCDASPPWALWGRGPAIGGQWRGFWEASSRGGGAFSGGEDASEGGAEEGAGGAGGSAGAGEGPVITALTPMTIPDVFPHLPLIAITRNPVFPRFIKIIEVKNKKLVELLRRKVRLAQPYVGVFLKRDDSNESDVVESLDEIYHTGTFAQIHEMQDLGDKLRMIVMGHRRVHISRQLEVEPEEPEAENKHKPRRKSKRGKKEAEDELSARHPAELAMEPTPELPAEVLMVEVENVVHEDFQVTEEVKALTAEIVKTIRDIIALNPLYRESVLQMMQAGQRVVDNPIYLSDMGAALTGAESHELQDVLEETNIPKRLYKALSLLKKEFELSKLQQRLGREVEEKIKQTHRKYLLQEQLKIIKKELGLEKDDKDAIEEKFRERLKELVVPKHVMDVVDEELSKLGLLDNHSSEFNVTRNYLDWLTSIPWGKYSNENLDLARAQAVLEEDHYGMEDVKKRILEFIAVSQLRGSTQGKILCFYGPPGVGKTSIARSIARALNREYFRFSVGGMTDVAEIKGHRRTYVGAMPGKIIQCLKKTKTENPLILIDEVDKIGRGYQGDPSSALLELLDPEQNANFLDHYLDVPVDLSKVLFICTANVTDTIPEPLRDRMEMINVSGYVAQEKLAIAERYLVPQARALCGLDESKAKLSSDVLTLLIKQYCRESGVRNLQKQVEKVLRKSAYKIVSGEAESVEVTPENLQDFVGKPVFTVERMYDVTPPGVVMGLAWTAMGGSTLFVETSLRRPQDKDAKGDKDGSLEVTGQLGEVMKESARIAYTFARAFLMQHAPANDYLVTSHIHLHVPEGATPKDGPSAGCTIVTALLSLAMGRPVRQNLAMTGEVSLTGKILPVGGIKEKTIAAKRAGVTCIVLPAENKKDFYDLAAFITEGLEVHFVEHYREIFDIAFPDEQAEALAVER
Test: FRET-Based Assay
Procedure: The LONP1-containing mix (10 μL) was incubated with the test compound for 15 min at 37° C. before adding the peptide-containing mix (5 μL). Solutions were dispensed using a small cassette-Multidrop Combi (Thermo Scientific).

**Q.** `COCC[C@@H](NC(=O)c1cnccn1)C(=O)N[C@@H](CCCc1ccccc1)B(O)O` [US20250059213, Compound 13] was tested. Which IC50 did it give?
**A.** The IC50 was < 50 nM.
